Where “and” joins values, the source holds several entries; their conditions need not be identical. Equal entries are not always repeated.

The results in this text go back to US4160016A, “Receptor fluorescent immunoassay” (Syva Company, priority 1977, dated 1979).

Common to all, as to format: biochemical
Test [1] deals with Anti-Morphine. The experiment in a line: Fluorescence quenching of fluorescein-morphine by anti-morphine alone (Table I, cell No. 3). The note with it: for Signal Intensity: fluorescein-morphine 5 μl + anti-morphine 5 μl. On the procedure:
(§1) The reagents which were employed were as follows: FLUMO (fluorescein-morphine conjugate, Example V) was 3× 10^-6 M in water; antifluorescein was 5.6× 10^-6 M in binding sites, in water, 0.05M phosphate, pH 8.0; anti-morphine was 2× 10^-4 M in binding sites, 0.05M tris-HCl, pH 8.0, in saline solution; buffer was Tris/saline 0.05M/l, pH 8,0. Opiate solutions had 1,000 μg/ml of codeine. The solution was then diluted to a final volume of 4 ml with buffer.
(§2) All of the determinations were made at a sensitivity setting on the instrument of 4. Excitation light was 460 nm and the emitted light read at 516 nm, with a band width of 10 nm.
(§3) Where a reading is given but the absence of any material is indicated, only buffer was present in the cell. The reading times indicate the interval of time from the time of the first reading to the reading for the result which is reported, the first reading being made within as short an interval as possible of the mixing.

Test [2] has as its system Anti-Fluorescein and Anti-Morphine. Put plainly: Table I fluorescence readings: fluorescein-morphine with antifluorescein and/or anti-morphine, with and without codeine. On the procedure: In order to establish the utility of the subject compounds, the following assays were carried out. […] The fluorometer employed was a Perkin-Elmer MPF-2a. Antibodies to the fluorescers had been prepared according to normal procedures. The bovine serum albumin conjugates were injected into sheep, and after appropriate periods of time, the antibodies harvested according to conventional techniques. For typical methods of obtaining antibodies, see Microbiology, Hober Medical Division, Harper and Rowe, 1969; Landsteiner, Specificity of Seriological Reactions, Dover Publications, New York, 1962; Kabat, et al, supra; and Williams, et al, Methods in Immunology and Immunochemistry, Vol. 1, Academic Press, New York, 1967.
as §1, §2, §3

In test [3] the test system is Anti-Morphine. The experiment in a line: Fluorescence assay for codeine with morphine-fluorescein conjugate (Ex. V) and antimorphine (Table 2). From the text:
The following tables indicate the results.

Turning to `CN1CC[C@]23c4c5ccc(OCC(=O)Nc6ccc7c(c6)C6(OC7=O)c7ccc(O)cc7Oc7cc(O)ccc76)c4O[C@H]2[C@@H](O)C=C[C@H]3[C@H]1C5` [Ex. V], the “Signal Intensity” value with Anti-Morphine [1] (5 min) is 35; in the test on Anti-Morphine [1] (first reading) it was 35.5; in test [2] (fluorescein-morphine 5 μl + anti-fluorescein 5 μl + anti-morphine 5 μl, first reading, cells No. 2 and 3), 25 and 23; in test [2] (fluorescein-morphine 5 μl + anti-fluorescein 5 μl, cell No. 2), 21; in test [2] (fluorescein-morphine 5 μl alone, buffer pH 8.0, ex 460 nm, em 516 nm, cells No. 2 and 3), 62 and 46; in test [2] (fluorescein-morphine + anti-fluorescein + anti-morphine (5 μl each), 5 min, cells No. 2 and 3), 26.5 and 22.5. For the same molecule, the “Signal Intensity” value in test [2] (fluorescein-morphine + anti-fluorescein + anti-morphine (5 μl each), 90 min, cell No. 2) worked out at 27.5. In the test on Anti-Morphine [1] (fluorescein-morphine combined with antimorphine), the “reduction in signal intensity” value is given as “approximately 25%”. The “change in signal intensity” value in test [2] (cell No. 2, no codeine, in the first 5 minutes) is recorded as 1.5 units; in test [2] (cell No. 2, no codeine, over 90 minutes), 2.5 units. Moreover, the “Fluorescence Signal” value with Anti-Morphine [3] (Ex. V 1.9 × 10^-8 M alone) was 79 arbitrary units.

For the molecule `COc1ccc2c3c1O[C@H]1[C@@H](O)C=C[C@H]4[C@@H](C2)N(C)CC[C@@]341` [Codeine, codeine, reference compound], the “change in signal intensity” value in test [2] (cell No. 1, codeine added to mixture of the two antibodies, over 90 minutes) came out at 0.5 units; in test [2] (cell No. 3, both antibodies with codeine and fluorescein-morphine, over 90 minutes) it was 6.5 units. The “Signal Intensity” value in test [2] (codeine 5 μl + anti-fluorescein + anti-morphine, no fluorescein-morphine, 90 min, cell No. 1) worked out at 6; in test [2] (codeine 5 μl + anti-fluorescein + anti-morphine, no fluorescein-morphine, first reading, cell No. 1), 5.5; in test [2] (codeine 5 μl added to fluorescein-morphine + anti-fluorescein + anti-morphine, 90 min, cell No. 3) it was 16; in test [2] (codeine 5 μl added to fluorescein-morphine + anti-fluorescein + anti-morphine, first reading, cell No. 3), 20. In test [2] (codeine introduced into mixture of fluorescein-morphine and antibodies to fluorescein and morphine), the change in fluorescence result is given as “a detectable change in fluorescence is obtained”. Moreover, the “fluorescence quenched by the anti-morphine that is recovered with the addition of codeine” value in the test with Anti-Morphine [3] is on record as “about 30%”. For the same molecule, the results for the “Fluorescence Signal” value with Anti-Morphine [3] (Ex. V + anti-morphine + codeine 1.9 × 10^-7 M), in the test with Anti-Morphine [3] (Ex. V + anti-morphine + codeine 6.7 × 10^-7 M) and in the test with Anti-Morphine [3] (Ex. V + anti-morphine + codeine 9.5 × 10^-8 M) were 62.5 arbitrary units, 64.5 arbitrary units and 61 arbitrary units, respectively. Moreover, the “concentration of codeine detectible” value in the test on Anti-Morphine [3] (with the particular materials employed) is given as “about 10^-7”.
